From patent publication US20250109134A1 (Ascentage Pharma (Suzhou) Co., Ltd., priority 2022, published 2025)
Structures can show the parent of a compound that is named as a salt.

Columns and labels:
Format in all cases: physicochemical
[1] = Stability study, solid form by XRPD after open storage at high temperature / high humidity; conditions: for change in the crystalline form after storage (XRPD), physical stability: open, 60° C., RT/92.5% RH, RT/75% RH, 40° C./75% RH, 30 days
Procedure: In the present invention, the XRPD test parameters are set as follows:
Then, the sample flasks were opened to air (sealed with aluminum foil punctured with small holes) and placed in constant temperature and humidity cabinets at high temperature (60° C.), at room temperature and high humidity (RT/92.5% RH), at RT/75% RH, and at 40° C./75% RH for 30 days, respectively, and samples were taken at days 5, 10 and 30 for XRPD and HPLC detection.

[2] = Dynamic vapor sorption (DVS) hygroscopicity test; conditions: for hygroscopic weight gain (DVS): 25° C. and 80% RH; for hygroscopicity (DVS), in words: 80% RH; for crystalline form before and after hygroscopic test (XRPD after DVS): XRPD of sample after DVS
From the text: In the present invention, the DVS test parameters are set as follows: […]

[3] = Stability study, content and related substances (TRS, total impurity content) by HPLC; conditions: for chemical stability (HPLC, TRS total impurity content): open, 60° C., RT/92.5% RH, RT/75% RH, 40° C./75% RH, up to 30 days
Procedure: In the present invention, the HPLC (high performance liquid chromatography) test parameters are set as follows:
Then, the sample flasks were opened to air (sealed with aluminum foil punctured with small holes) and placed in constant temperature and humidity cabinets at high temperature (60° C.), at room temperature and high humidity ([…]), at RT/75% RH, and at 40° C./75% RH for 30 days, respectively, […]

[4] = XRPD characterization (crystallinity), summary evaluation; conditions: summary of forms
From the text: In the present invention, the XRPD test parameters are set as follows: […]

| Structure (SMILES) | change in the crystalline form after storage (XRPD), physical stability [1] | hygroscopic weight gain (DVS) [2] [%] | hygroscopicity (DVS), in words [2] | crystalline form before and after hygroscopic test (XRPD after DVS) [2] | chemical stability (HPLC, TRS total impurity content) [3] | Evaluation results: crystallinity [4] | other results |
| --- | --- | --- | --- | --- | --- | --- | --- |
| CC(C)N1Cc2cc(C(F)(F)F)ncc2-c2cnc(NCc3c(F)ccc4c3CCO4)n3cnc(c23)C1=O [crystalline form A of the hydrochloride salt of the compound] | no change in the crystalline form | 0.31 | slight hygroscopicity | did not change | good chemical stability |  |  |
| CC(C)N1Cc2cc(C(F)(F)F)ncc2-c2cnc(NCc3c(F)ccc4c3CCO4)n3cnc(c23)C1=O [Crystalline form G] |  |  |  |  |  | High crystallinity | Evaluation results: hygroscopicity ([2]; summary of forms): slight hygroscopicity |
| CC(C)N1Cc2cc(C(F)(F)F)ncc2-c2cnc(NCc3c(F)ccc4c3CCO4)n3cnc(c23)C1=O [crystalline form A of the compound of formula I] | no change in the crystalline form | 0.44 | slight hygroscopicity |  | good chemical stability |  |  |
| CC(C)N1Cc2cc(C(F)(F)F)ncc2-c2cnc(NCc3c(F)ccc4c3CCO4)n3cnc(c23)C1=O [crystalline form A of the methanesulfonate salt of the compo] | no change in the crystalline form | 0.84 | slight hygroscopicity | did not change |  |  |  |
| CC(C)N1Cc2cc(C(F)(F)F)ncc2-c2cnc(NCc3c(F)ccc4c3CCO4)n3cnc(c23)C1=O [crystalline form B of the compound of formula I] | no change in the crystalline form | 0.84 | slight hygroscopicity |  | good chemical stability |  |  |
| CC(C)N1Cc2cc(C(F)(F)F)ncc2-c2cnc(NCc3c(F)ccc4c3CCO4)n3cnc(c23)C1=O.Cc1ccc(S(=O)(=O)O)cc1 [p-toluenesulfonate Crystalline form A] |  |  |  |  |  | High crystallinity |  |
| CC(C)N1Cc2cc(C(F)(F)F)ncc2-c2cnc(NCc3c(F)ccc4c3CCO4)n3cnc(c23)C1=O [crystalline form A of the sulfate salt of the compound of fo] | no change in the crystalline form | 1.43 | slight hygroscopicity | did not change |  |  |  |
| CC(C)N1Cc2cc(C(F)(F)F)ncc2-c2cnc(NCc3c(F)ccc4c3CCO4)n3cnc(c23)C1=O.CS(=O)(=O)O [Methanesulfonate salt Crystalline form A] |  |  |  |  |  | High crystallinity |  |
| CC(C)N1Cc2cc(C(F)(F)F)ncc2-c2cnc(NCc3c(F)ccc4c3CCO4)n3cnc(c23)C1=O [Crystalline form B] |  |  |  |  |  | high crystallinity | Evaluation results: stability ([1]; summary of forms): Good stability; TRS(%) ([3]; 40° C./75RH %-5 d, open storage): 0.54%; TRS(%) ([3]; 40° C./75RH %- 10 d, open storage): 0.46%; TRS(%) ([3]; 40° C./75RH %- 30 d, open storage): 0.56%; TRS(%) ([3]; 60° C.-5 d, open storage): 0.52%; TRS(%) ([3]; 60° C.-10 d, open storage): 0.53%; TRS(%) ([3]; 60° C.-30 d, open storage): 0.62%; TRS(%) ([3]; Initial, TRS = total impurity content, HPLC): 0.89%; TRS(%) ([3]; RT/90RH %-5 d, open storage): 0.55%; TRS(%) ([3]; RT/90RH %-10 d, open storage): 0.56%; TRS(%) ([3]; RT/90RH %-30 d, open storage): 0.58% |
